Results reported in PMC11520566, “Discovery of pyrazole-based analogs as CDK2 inhibitors with apoptotic-inducing activity: design, synthesis and molecular dynamics study” (RSC Advances, 2024).

Tests used:
[1] = system: MCF7; assay: NCI 60 five dose assay, Breast cancer; assay type: cell-based, human
[2] = system: OVCAR-5; assay: NCI 60 five dose assay, Ovarian cancer; assay type: cell-based, human
[3] = system: RPMI-8226; assay: NCI 60 single dose screen, Leukemia; assay type: cell-based, human; settings: single dose 10 μM
Protocol: (§1) The newly synthesized pyrazoles 2a–g, 7a–d, 8a and b, 9, and 10 were submitted to the National Cancer Institute (NCI) Developmental Therapeutics Program (http://www.dtp.nci.nih.gov) for assessment of their potential antiproliferative activity against a panel of NCI 60 cancer cell lines. All compounds were approved for screening against the approved 60 cancer cell lines at a single dose of 10 μM. The human cancer cell lines were derived from 9 variant cancer types including leukemia, melanoma, lung, colon, CNS, ovarian, renal, prostate and breast cancers. The results are presented as percentage of growth inhibition (GI%) of the screened compounds against the full panel of cell lines.
(§2) Under sterile conditions, the cell lines were grown in RPMI 1640 media (Gibco, NY, USA) supplemented with 10% fetal bovine serum (Biocell, CA, USA), and […] cell/mL was used to test the growth inhibition activity of the synthesized compounds. The compounds with concentrations ranging from 0.01 to 100 μM were prepared in phosphate buffer saline. Each compound was initially solubilized in dimethyl sulfoxide (DMSO); however, each final dilution contained less than 1% DMSO. Solutions of different concentrations (0.2 mL) were pipetted into the separate well of a microtiter tray in duplicate. Cell culture (1.8 mL) containing a cell population of […] cells per mL was pipetted into each well. Controls, containing only phosphate buffer saline and DMSO at identical dilutions, were also prepared in the same manner. These cultures were incubated in a humidified incubator at 37 °C. The incubator was supplied with 5% CO2 atmosphere. After 48 h, the cells in each well were diluted 10 times with saline and counted using a Coulter counter. The counts were corrected for the dilution.[34]

[4] = system: CCRF-CEM; assay: NCI 60 single dose screen, Leukemia; assay type: cell-based, human; settings: single dose 10 μM
Protocol: as §1, §2

[5] = system: MOLT-4; assay: NCI 60 five dose assay, Leukemia; assay type: cell-based, human
[6] = system: NCI-H460; assay: NCI 60 single dose screen, Non-small cell lung cancer; assay type: cell-based, human; settings: single dose 10 μM
Protocol: as §1, §2

[7] = system: NCI-H23; assay: as above; assay type: cell-based, human; settings: single dose 10 μM
Protocol: as §1, §2

[8] = system: NCI-H322M; assay: as above; assay type: cell-based, human; settings: single dose 10 μM
Protocol: as §1, §2

[9] = system: HS 578T; assay: NCI 60 five dose assay, Breast cancer; assay type: cell-based, human
[10] = system: NCI-H322M; assay: NCI 60 five dose assay, Non-small cell lung cancer; assay type: cell-based, human
[11] = system: NCI/ADR-RES; assay: NCI 60 five dose assay, Ovarian cancer; assay type: cell-based, human
[12] = system: HOP-92; assay: NCI 60 five dose assay, Non-small cell lung cancer; assay type: cell-based, human
[13] = system: OVCAR-4; assay: NCI 60 five dose assay, Ovarian cancer; assay type: cell-based, human
[14] = system: K-562; assay: NCI 60 five dose assay, Leukemia; assay type: cell-based, human
[15] = system: DU-145; assay: NCI 60 five dose assay, Prostate cancer; assay type: cell-based, human
[16] = system: HCT-116 cells; assay: Flow cytometry cell cycle analysis; assay type: cell-based; settings: 1.806 μM
Protocol: Cell cycle analysis was conducted to explore the mechanism and the mode of action of the newly synthesized compounds as anticancer agents, typically inducing cytotoxicity by activating signaling pathways that trigger apoptosis.[35] […] Compound 4 was further subjected to cell cycle analysis following the established protocols.[35]
The cell cycle analysis protocol was performed on compound 4 on HCT-116 cells. This test is based on the content of DNA measured by staining using propidium iodide. Initially, the cells were washed in PBS before being kept at 4 °C for 3 min dropwise using the vortex addition of cold 70% ethanol to avoid cell clumping and to ensure fixation as well. Then, […] of a stock of […] ribonuclease was added to selectively stain only DNA. Finally, […] of a stock solution of […] of propidium iodide was added.[35]

[17] = system: NCI-H23; assay: NCI 60 five dose assay, Non-small cell lung cancer; assay type: cell-based, human
[18] = Homo sapiens, read-out: LC50 (the source's name)

SMILES: CC(=NNc1ccc(S(N)(=O)=O)cc1)c1ccc(NN=C2C(=O)NN=C2Nc2ccccc2)cc1 [Compound 4, 4-(2-(1-(4-(2-(5-oxo-3-(phenylamino)-1,5-dihydro-4H-pyrazol-4-ylidene)hydrazinyl)phenyl)ethylidene)hydrazinyl)benzene sulfonamide]
- GI50 ([1]; Homo sapiens): 2.4 µM
- CC50 [1, 18]: 27.4 µM
- Percent Growth ([1]; Log10 Concentration -4.0 Molar): -97%
- Percent Growth ([1]; Log10 Concentration -5.0 Molar): -14%
- Percent Growth ([1]; Log10 Concentration -6.0 Molar): 89%
- Percent Growth ([1]; Log10 Concentration -7.0 Molar): 93%
- Percent Growth ([1]; Log10 Concentration -8.0 Molar): 93%
- GI50 ([2]; Homo sapiens): 11 µM
- CC50 [2, 18]: 54.2 µM
- Percent Growth ([2]; Log10 Concentration -4.0 Molar): -88%
- Percent Growth ([2]; Log10 Concentration -5.0 Molar): 56%
- Percent Growth ([2]; Log10 Concentration -6.0 Molar): 93%
- Percent Growth ([2]; Log10 Concentration -7.0 Molar): 96%
- Percent Growth ([2]; Log10 Concentration -8.0 Molar): 95%
- GI% [3]: 96.53%
- GI% [4]: 96.41%
- GI50 ([5]; Homo sapiens): 1.64 µM
- CC50 [5, 18]: 34.9 µM
- Percent Growth ([5]; Log10 Concentration -4.0 Molar): -69%
- Percent Growth ([5]; Log10 Concentration -5.0 Molar): -28%
- Percent Growth ([5]; Log10 Concentration -6.0 Molar): 71%
- Percent Growth ([5]; Log10 Concentration -7.0 Molar): 95%
- Percent Growth ([5]; Log10 Concentration -8.0 Molar): 96%
- GI% [6]: 91.13%
- GI% [7]: 99.80%
- GI% [8]: 90.78%
- GI50 ([9]; Homo sapiens): 3.31 µM
- CC50 [9, 18]: > 100 µM
- Percent Growth ([9]; Log10 Concentration -4.0 Molar): -28%
- Percent Growth ([9]; Log10 Concentration -5.0 Molar): 11%
- Percent Growth ([9]; Log10 Concentration -6.0 Molar): 92%
- Percent Growth ([9]; Log10 Concentration -7.0 Molar): 93%
- Percent Growth ([9]; Log10 Concentration -8.0 Molar): 85%
- GI50 ([10]; Homo sapiens): 3.72 µM
- CC50 [10, 18]: 41.9 µM
- Percent Growth ([10]; Log10 Concentration -4.0 Molar): -93%
- Percent Growth ([10]; Log10 Concentration -5.0 Molar): 21%
- Percent Growth ([10]; Log10 Concentration -6.0 Molar): 89%
- Percent Growth ([10]; Log10 Concentration -7.0 Molar): 99%
- Percent Growth ([10]; Log10 Concentration -8.0 Molar): 103%
- GI50 ([11]; Homo sapiens): > 100 µM
- CC50 [11, 18]: > 100 µM
- Percent Growth ([11]; Log10 Concentration -4.0 Molar): 65%
- Percent Growth ([11]; Log10 Concentration -5.0 Molar): 86%
- Percent Growth ([11]; Log10 Concentration -6.0 Molar): 96%
- Percent Growth ([11]; Log10 Concentration -7.0 Molar): 101%
- Percent Growth ([11]; Log10 Concentration -8.0 Molar): 97%
- GI50 ([12]; Homo sapiens): 1.3 µM
- CC50 [12, 18]: 30.7 µM
- Percent Growth ([12]; Log10 Concentration -4.0 Molar): -89%
- Percent Growth ([12]; Log10 Concentration -5.0 Molar): -13%
- Percent Growth ([12]; Log10 Concentration -6.0 Molar): 58%
- Percent Growth ([12]; Log10 Concentration -7.0 Molar): 81%
- Percent Growth ([12]; Log10 Concentration -8.0 Molar): 74%
- GI50 ([13]; Homo sapiens): 2.84 µM
- CC50 [13, 18]: 40.7 µM
- Percent Growth ([13]; Log10 Concentration -4.0 Molar): -80%
- Percent Growth ([13]; Log10 Concentration -5.0 Molar): -3%
- Percent Growth ([13]; Log10 Concentration -6.0 Molar): 94%
- Percent Growth ([13]; Log10 Concentration -7.0 Molar): 98%
- Percent Growth ([13]; Log10 Concentration -8.0 Molar): 94%
- GI50 ([14]; Homo sapiens, K562): 2.29 µM
- CC50 ([14]; Homo sapiens, K562, read-out: LC50 (the source's name)): 22.8 µM
- Percent Growth ([14]; Log10 Concentration -4.0 Molar): -100%
- Percent Growth ([14]; Log10 Concentration -5.0 Molar): -22%
- Percent Growth ([14]; Log10 Concentration -6.0 Molar): 90%
- Percent Growth ([14]; Log10 Concentration -7.0 Molar): 87%
- Percent Growth ([14]; Log10 Concentration -8.0 Molar): 88%
- GI50 ([15]; Homo sapiens): 3.21 µM
- CC50 [15, 18]: 32.2 µM
- Percent Growth ([15]; Log10 Concentration -4.0 Molar): -100%
- Percent Growth ([15]; Log10 Concentration -5.0 Molar): 2%
- Percent Growth ([15]; Log10 Concentration -6.0 Molar): 99%
- Percent Growth ([15]; Log10 Concentration -7.0 Molar): 106%
- Percent Growth ([15]; Log10 Concentration -8.0 Molar): 100%
- cell cycle result [16]: apoptotic cell growth arrest occurring at the G1 phase
- %G2/M ([16]; control 6.82): 3.79%
- %S ([16]; control 33.81): 23.05%
- %G0/G1 ([16]; control 59.37): 73.16%
- cell cycle result ([16]; listed as cpd4): cell growth arrest@ G1
- GI50 ([17]; Homo sapiens): 2.54 µM
- CC50 [17, 18]: 23.1 µM
- Percent Growth ([17]; Log10 Concentration -4.0 Molar): -98%
- Percent Growth ([17]; Log10 Concentration -5.0 Molar): -23%
- Percent Growth ([17]; Log10 Concentration -6.0 Molar): 99%
- Percent Growth ([17]; Log10 Concentration -7.0 Molar): 105%
- Percent Growth ([17]; Log10 Concentration -8.0 Molar): 105%
